Tests used:
Clostridium = settings: in the fermentation medium
[1] = system: butanol-producing Clostridium strain; format: cell-based

SMILES: O=CO [Formic acid]
- concentration at which it becomes inhibitory to growth of Clostridium and subsequent production of butanol (Clostridium): 0.3 to 0.4 g/L

SMILES: [Cl][Fe]([Cl])[Cl] [ferric chloride]
- transformation of un-fermentable hydrolysate into fermentable feedstock supporting microbial growth and butanol production ([1]; 2 g/L to 5 g/L metal salt, pH 9 to 10.5, 20° C. to 40° C.): successful
- butanol concentration after microbial fermentation for 72 hours ([1]; hydrolysate treated with 3 g/L […] or 2 g/l ferric chloride, pH 9.5, room temperature (about 20° C.), fermentation 10 ml, 30° C.): 7.69 g/L

Source: US20110318798A1, “REMOVAL OF INHIBITORS OF MICROBIAL FE[…] INHIBITOR-CONTAINING COMPOSITIONS” (priority 2010, published 2011)
